Results reported in patent US9611502B2, “Method for simultaneously measuring activity of various enzymes by using multi-wavelength absorption single channel” (Chongqing Medical University, priority 2012, dated 2017).

Assays:
[1] = target: T1, lactic acid dehydrogenase (LDH) (Oryctolagus cuniculus, UniProt P13491); experiment: LDH kinetics and competitive inhibition by 4-nitroaniline (simultaneous GGT/LDH assay); type: biochemical, rabbit
T1 construct: purchased Shanghai Shangon NB0642

[2] = target: T2, calf intestinal alkaline phosphatase (CIAP) (Bos taurus, UniProt P19111)
T2 sequence (P19111 20-506): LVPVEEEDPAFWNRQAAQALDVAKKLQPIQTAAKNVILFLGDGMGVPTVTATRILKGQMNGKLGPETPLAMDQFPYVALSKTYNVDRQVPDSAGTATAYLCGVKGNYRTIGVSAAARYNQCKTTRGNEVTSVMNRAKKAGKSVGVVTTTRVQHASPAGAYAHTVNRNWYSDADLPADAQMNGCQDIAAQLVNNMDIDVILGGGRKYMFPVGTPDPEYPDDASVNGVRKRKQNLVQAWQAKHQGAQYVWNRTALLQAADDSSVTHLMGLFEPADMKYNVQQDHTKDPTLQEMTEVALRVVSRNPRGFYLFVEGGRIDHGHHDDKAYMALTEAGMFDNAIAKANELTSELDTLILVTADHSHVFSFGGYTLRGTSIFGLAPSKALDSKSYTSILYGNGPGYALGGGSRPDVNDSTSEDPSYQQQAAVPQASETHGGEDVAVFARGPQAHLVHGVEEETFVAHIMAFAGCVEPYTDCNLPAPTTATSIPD

[3] = target: T2, calf intestinal alkaline phosphatase (CIAP); design: purchased Sigma P0114; conditions: Blake et al 1982 method; cited from earlier work
[4] = Specific activity of penicillin G-labeled β-D-galactosidase after labeling; type: biochemical; conditions: 50 mmol/L Tris-HCl pH 7.5
Protocol: b) mixing 50 ul solution of the activated penicillin G with 0.50 ml of 0.44 mg β-D-galactosidase dissolved in the sodium phosphate buffer at pH 7.4, keeping the mixture at 4° C. for reaction for 120 min; the resulting mixture of the labeled β-D-galactosidase is passed through Sephadex G25 column (15 cm height and 10 mm inner diameter with a packed volume of 10 ml, equilibrated with 50 mmol/L Tris-HCl at pH 7.5) and the column is eluted with the same Tris-HCl buffer to monitor the absorbance at 280 nm; the first peak of the elution is the labeled β-D-galactosidase, with a total of 0.22 mg protein in 2.0 ml elution solution;
c) determining the specific activity after labeling: in 50 mmol/L Tris-HCl at pH 7.5, the specific activity of the labeled β-D-galactosidase is about 30 μmol·(L·min·mg)^−1 on 4-nitrophenyl-β-D-galactoside, indicating the reservation of nearly 100% activity; meanwhile, the specific activity on 4-nitro-1-napthyl-β-D-galactoside in the same buffer, its specific activity is about 100 (L·min·mg)^−1, but just about 70% of that before modification;

[5] = test system: γ-glutamyltransferase (GGT); conditions: preset for data processing; cited from earlier work

Compound: NC(=O)C1=CN([C@@H]2O[C@H](COP(=O)(O)OP(=O)(O)OC[C@H]3O[C@@H](n4cnc5c(N)ncnc54)[C@H](O)[C@@H]3O)[C@@H](O)[C@H]2O)C=CC1 [NADH, reduced form of nicotine adenine nucleotide]
- Michaelis constant of LDH for NADH ([1]; pyruvate 3.0 mmol/L, pH 7.0): 0.040 mmol/L

Compound: O=[N+]([O-])c1ccc(OP(=O)(O)O)c2ccccc12 [4NNPP, 4-nitronaphthylphosphate]
- specific activity of CIAP relative to that on 4-nitrophenylphosphate [2]: about 40%
- Michaelis constant of CIAP ([2]; 4NNPP as chromogenic substrate): about 10 μmol/L

Compound: phenolphthalein monophosphate
- specific activity of CIAP relative to that on p-nitrophenylphosphate [3]: about 7%

Compound: labeled β-D-galactosidase: β-D-galactosidase (Sigma G4155) modified with activated penicillin G
- reservation of activity after labeling (4-nitrophenyl-β-D-galactoside) [4]: about 100%
- specific activity on 4-nitro-1-napthyl-β-D-galactoside [4]: about 100 (L·min·mg)^−1
- specific activity on 4-nitro-1-napthyl-β-D-galactoside relative to that before modification [4]: about 70%
- specific activity on 4-nitrophenyl-β-D-galactoside [4]: about 30 μmol·(L·min·mg)^−1

Compound: Nc1ccc([N+](=O)[O-])cc1 [4-nitroaniline]
- Ki [1]: 24 µM

Compound: N[C@@H](CCC(=O)Nc1ccc([N+](=O)[O-])cc1)C(=O)O [γ-glutamyl-(4-nitro)-aniline]
- Michaelis constant of GGT for substrate (preset) [5]: 1.00 mmol/L
